Data reported in patent publication US5750332A, “Peptomers with enhanced immunogenicity” (priority 1995, dated 1998).
“And” between values parts separate entries of the source, which are not always exact repeats. Equal values may be shown once. Read-outs that look alike come from different tables or passages of the source. Where no end group is shown, it is not given here.

Legend:
[1] = target: CD4 (Homo sapiens, UniProt P01730); assay: Binding of peptide monomer to CD4 in the presence of detergent
[2] = Circular dichroism spectroscopy, degree of α-helicity; format: physicochemical; conditions: for helix content: circular dichroism, analysis according to Provencher et al.
Description: Circular dichroism spectroscopy was used to determine the degree of α-helicity of the peptomer and the peptide from which it was derived. […] In this case, the peptide contains 8±7% helix, while the peptomer has 31±1%. This establishes that by polymerizing the peptide, the peptomer achieves a conformation that is not favored for the free peptide monomer.
Using circular dichroism spectroscopy as described in Example 5, above, the degree of α-helicity of the peptide (419-436) with and without detergent was determined.

[3] = tested on: antisera from HIV infected individuals; assay: ELISA of serum samples on plates coated with peptide or peptomer; format: binding; conditions: for ELISA Titer of serum sample: 1 μg/well coated
Procedure: Standard ELISA methods were used in these experiments. Briefly, 96-well polystyrene plates were coated with 1 μg/well of peptide or peptomer. The peptide found 9/27 (33%); the peptomer found 26/27 (96%); 1/10 (10%) false positive with the peptomer.

[4] = target: recombinant soluble gp120 (Human immunodeficiency virus type 1 group M subtype B, UniProt P05877); conditions: rabbit antibodies, dot blot assay
Procedure: The dot blot assays were carried as follows. Peptomers in H2 O were spotted onto nitrocellulose paper. The nitrocellulose was then blocked with 3% bovine serum albumin in tris-buffered saline (TBS) pH 7.4 for 1 hour, then treated with 1 μg/ml biotinylated rsCD4 (Genentech, South San Francisco, Calif.) for 3 hours in a buffer containing TBS and 0.1% Tween 20. The nitrocellulose was then treated with a 1:750 dilution of streptavidin-horseradish peroxidase conjugate and developed.

[5] = tested on: MN isolate of HIV1; assay: In vitro neutralization assay with rabbit antisera; format: cell-based; conditions: rabbit antibodies, Freund's adjuvant, HIV-1 MN in vitro
Procedure: HIV-1 MN isolate was neutralized at a dilution of 1:70. Neutralization assays were carried as described in Robert-Guroff, et al. in Techniques in HIV Research Aldovini and Walker eds. pp. 179-185 (Aldrich 1990).
gp120 Reactivity was in the dot blot assay. Neutralization was with an in
vitro neutralization assay using the MN isolate of HIV1.

[6] = Solubility of the peptomer; format: physicochemical
Procedure: b) Polymerization of the peptide monomers to form peptomer (419-436) The peptide polymers were prepared by dissolving 5 mg of the N-bromoacetyl cysteine-containing peptides in 1.0 ml of deoxygenated 0.5M NaHCO3 or 0.1M NaHPO4, pH 7.0-7.5 buffer and stirring these solutions under N2 for 5-12 hours at 25° C. […] They are soluble in 10% acetic acid at less than about 1mg/ml.
The peptomer used in the experiments described in this Example was prepared without a lyophilization step.

[7] = target: T1, gp120 binding to CD4 (Homo sapiens, UniProt P01730); assay: ELISA: inhibition of gp120 binding to CD4 by peptomer; set-up: species or system HIV-1; conditions: 500 ng/well recombinant soluble gp120 coated, biotinylated CD4, peptomer prepared without lyophilization
T1 construct: recombinant soluble CD4 (Genentech); purchased Genentech
Procedure: C. Inhibition of gp120 binding to CD4 by peptomer(419-436). The ELISA procedure was the same as above except that 500 ng/well of recombinant soluble gp120 was used to coat each well instead of peptomer. Poly-scrambled peptomer is a peptomer that contains all the amino acids as in peptomer(419-436) in a scrambled order.

[8] = tested on: Rhesus monkeys; assay: Immune response of Rhesus monkeys: ELISA titer against the peptomer; format: in vivo; conditions: for ELISA titer 0 weeks: before peptomer immunization
Procedure: (§1) This experiment was done with Rhesus monkeys that had been primed with various attenuated poxvirus recombinant carrying HIV-1MN genes and boosted with envelope and gag proteins formulated in alum. Six monkeys were used for the studies. Two of the monkeys were immunized with peptomer(419-436) suspended in phosphate-buffered saline (PBS at pH 7.4 without adjuvant) and four were immunized with peptomer(419-436) in alum. Each animal was injected with a single 1 ml bolus containing 1 mg peptomer(419-436) in a subscapular location in order that the immunogen be administered in a lymph node-rich locus. Three weeks after the initial injection, the monkeys were injected again and the final evaluation was performed after an additional three weeks (a total of six weeks from the initial injection).
Three weeks following the initial administration of the peptomer(419-436) an ELISA titer against the peptomer of 1:3,200 was detected for the monkeys immunized with peptomer in alum.

[9] = tested on: HIV-1 (MN); assay: HIV-1 (MN) in vitro neutralization by sera of immunized Rhesus monkeys; format: cell-based; conditions: 1 mg in PBS at 0 and 3 weeks, reciprocal serum dilution giving 40% neutralization
Procedure: as §1
The neutralization titers are given as the reciprocal of the dilution of
serum that gives a 40% neutralization of HIV1 (MN) infection in vitro. A
negative value means neutralization was not observed at the lowest serum
dilution tested (1:25). The MN isolate was used because this was the
strain used to design the peptomer.

[10] = tested on: binding of biotinylated CD4 to peptomer(419-436); conditions: 10 μg/200 μl peptomer coated; 1 μg/well biotinylated CD4
[11] = diagnosis Hodgkins / lymphoma (control)
[12] = diagnosis Kidney Graft (control)

Substance: KIKQIINMWQEVGKAMYA [Peptide 419-436]
- ability of the peptide monomer to bind CD4 [1]: enhanced ability
- α-helix by circular dichroism ([2]; PBS with 0.03% Brij 35, shoulder at 220 λ): presence of an α-helix
- helix content [2]: 8±7%
- ELISA Titer of serum sample [3, 11]: 0
- ELISA Titer of serum sample [3, 12]: 0
- ELISA Titer of serum sample ([3]; diagnosis NORMAL (control)): 0
- ELISA Titer of serum sample ([3]; diagnosis uveitis (control)): 0
- HIV-1(+) serum samples found ([3]; of 27 HIV+/AIDS sera): 33%
- HIV-1(+) serum samples found ([3]; positive of 27 HIV+/AIDS sera): 9/27

Substance: Peptomer (419-436): polymer of N-bromoacetyl cysteine-containing peptide monomers KIKQIINMWQEVGKAMYA, residues 419 to 436 of HIV-1 gp120 (also: polymerized via N-bromoacetyl cysteine, site not given here)
- gp120 Reactivity ([4]; Freund's adjuvant): 0
- gp120 Reactivity ([4]; Freund's adjuvant, listed as peptomer (419-436)): not able to recognize gp120
- gp120 Reactivity ([4]; Ribi's adjuvant): reacted well
- Neutralization [5]: None
- Neutralization ([5]; listed as peptomer (419-436)): not able to recognize gp120 or to neutralize HIV-1 infection in vitro
- solubility in 10% acetic acid ([6]; 10% acetic acid): less than 1 mg/ml
- solubility in buffered saline solutions ([6]; buffered saline solutions): not soluble
- solubility in aqueous solutions ([6]; peptomer prepared without a lyophilization step): increased solubility
- solubility in water ([6]; water): only partially soluble
- inhibition of gp120 binding to CD4 ([7]; listed as peptomer): enhanced ability to block binding
- inhibition of gp120 binding to CD4 ([7]; listed as peptomer(419-436)): inhibition
- ELISA titer 0 weeks ([8]; Rhesus monkeys, PBS without adjuvant): 0
- ELISA titer 0 weeks ([8]; Rhesus monkeys, alum group): 0
- ELISA titer against the peptomer, three weeks after initial administration ([8]; Rhesus monkeys, peptomer in PBS): No titer was detected
- Immunogenicity in Rhesus monkeys ([8]; monkeys previously immunized with various HIV-related immunogens including gp160/120): immunogenic
- HIV-1 (MN) NEUTRALIZATION 6 weeks [9]: 40 and 50
- helix content [2]: 31±1%
- ELISA Titer of serum sample [3, 11]: 0
- ELISA Titer of serum sample [3, 12]: 0
- ELISA Titer of serum sample ([3]; diagnosis NORMAL (control)): 0
- false positive ([3]; of 10 non-HIV sera): 10%
- HIV-1(+) serum samples found ([3]; of 27 HIV+/AIDS sera): 96%
- false positive ([3]; positive of 10 non-HIV sera): 1/10
- HIV-1(+) serum samples found ([3]; positive of 27 HIV+/AIDS sera): 26/27

Substance: recombinant soluble gp120: recombinant soluble HIV-1 envelope glycoprotein gp120
- inhibition of biotinylated CD4 binding to peptomer(419-436) [10]: inhibition
